Like-named read-outs stand apart in the source and are kept apart here.
Tests used:
excised wheat embryos = test: Wheat embryo germination inhibition; format: in vivo, Triticum aestivum L. cv. Clark's Cream; conditions: in vivo
Experimental: Grains of soft white wheat (Triticum aestivum L. cv. Clark's Cream) were used. For bioassay, embryos with some adhering endosperm and pericarp attached were cut from the grains with a razor blade. Analogs were prepared by dissolving into a minimal amount of DMSO to prepare a 0.1 M solution, and then diluted with […], pH 5.8, to 0.01, 0.1, 1, 10 and 100 μM. For each analog concentration six replicate germination assays were conducted on 10 embryos each at 30° C. Embryos were incubated in Petri dishes (100×15 mm) containing 6 ml solution.

rice seedling leaves = conditions: Nakano et al. 1995; cited from earlier work
lettuce seed = conditions: Nakano et al. 1995; cited from earlier work
α-amylase activity = conditions: Nakano et al. 1995; cited from earlier work
[1] = tested on: stomatal opening of spiderwort; conditions: Nakano et al. 1995, cited from earlier work
[2] = tested on: ABA-responsive cor6.6 promoter; test: ABA-inducible gene expression (GUS activity) in transgenic tobacco seedlings containing Pcor6.6-GUS; format: in vivo, transgenic tobacco (promoter from Arabidopsis thaliana); conditions: 24 hours (FIG. 15)
Description: The results shown are an average of duplicate assays on samples containing 34 seedlings.
The results shown are an average of duplicate samples containing cotyledons from 34 seedlings.

[3] = tested on: suspension-cultured corn cells (var. Black Mexican Sweet); test: Growth inhibition of suspension-cultured corn cells; format: cell-based, corn (maize); conditions: four days
[4] = tested on: suspension-cultured corn cells; conditions: Balsevich et al 1994; cited from earlier work
[5] = background; cited from earlier work
[6] = tested on: Interior spruce seedlings; test: Growth of transplanted spruce seedlings; format: in vivo
[7] = tested on: Interior spruce seedlings; test: Gas exchange of spruce seedlings; format: in vivo; conditions: optimum conditions; longer periods at higher concentrations (FIGS. 19-21)
Description: (§1) The ABA analog was applied as a spray-root drench that stimulated application through a nursery irrigation system. Seedlings with intact root-soil plugs were placed in a container, and ABA analog treatments were applied as a top drench. Treated seedlings were kept in the large container where the treatment flow-through was allowed to be re-absorbed into the plugs over a two day period. This ensured that all of the treatment was taken up by the root plugs and was available to seedlings. During testing, root-soil plugs were kept intact, enabling ABA analog treatments to be retained in close contact with the root system.
For this testing program, ABA analog #365 was applied at 10^-4, […] and 10^-3 M concentrations. Analogs were dissolved in an acetone solution (@ 1%) to prepare ABA analog treatments. In addition, there was a control treatment of acetone only @ 1%. The analog treatments were applied one time, two days before the start of experimental measurements. […]
Gas exchange parameters (net photosynthesis (Pn), needle conductance (gwv), water use efficiency-not reported) were determined on the seedlings treated with the ABA analog at each concentration (n=8). […] Gas exchange parameters were assessed 9 times across the first 20 days of the measurement period. Thereafter, gas exchange parameters were periodically assessed at 5 times from day 20 until the 52nd day of the measurement period.

[8] = tested on: Interior spruce seedlings; test: Drought avoidance of transplanted spruce seedlings; format: in vivo
Description: as §1
For this testing program, ABA analog #365 was applied at 10^-4, […] and 10^-3 M concentrations. Analogs were dissolved in an acetone solution (@ 1%) to prepare ABA analog treatments. In addition, there was a control treatment of acetone only @ 1%. The analog treatments were applied one time, two days before the start of experimental measurements. Each seedling received approximately 20 ml of either an analog or a control solution.
Just after treatment application, seedlings (n=75) were put through a rapid eight to fifteen day drought. Seedlings were watered to saturation during ABA analog application. After 24 to 48 hours, when all of the ABA analog solution was absorbed by the seedling root plug, root systems were enclosed in a plastic bag and placed in a darkened chamber with the shoot systems exposed to the above described controlled environment conditions. Seedlings were allowed to dry out through shoot transpiration. Gas exchange parameters (Pn, and gwv) of seedlings (n=8) from each treatment were measured during each daylight period. At each gas exchange measurement time, seedlings were measured with a pressure chamber to determine .psi., Changes in gas exchange parameters and seedling water balance were determined over time.
A study was conducted to determine how the ABA analog influenced seedling response to potentially lethal soil drought. It was hypothesized that ABA analogs limit water use and delay deleterious physiological conditions in seedlings under limited soil water availability. The ABA analog would allow seedlings to avoid a potentially lethal drought stress to survive and have normal morphological development.
Just after treatment application, seedlings (n=75) were put through a rapid drought. Over the drought, seedlings were measured with a pressure chamber to determine .psi..

Question: What does the source list for `CC[C@@]1(C)CC(=O)C=C(C)[C@]1(O)/C=C/C(C)=C\C(=O)O` [(+)-8'-methyl ABA]?
Answer: germination inhibitory activity, wheat embryos (in words) (excised wheat embryos): more active than (+)-ABA; activity in elongation of rice seedling leaves (rice seedling leaves): more active than (+)-ABA; lettuce seed germination inhibition (lettuce seed): more active than (+)-ABA; blocking of GA3 stimulated α-amylase activity (α-amylase activity): nearly as active as (+)-ABA; activity in stomatal opening [1]: more active than (+)-ABA; activity in stomatal opening ([1]; listed as 8'-methyl analog): only slightly weaker than ABA; fold weaker than ABA as inducer of GUS [2]: about 3 fold; growth inhibition activity (comparison in words) [3]: comparable to that produced by (+)-ABA

Question: Which “shift (elevation) in pH of the medium (literature)” value [4] does the source give for `CC(=C/C(=O)O)/C=C/[C@]1(O)[C@@]2(C)CO[C@]1(C)CC(=O)C2` [Phaseic acid, phaseic acid] here?
Answer: not produced by PA

Question: What about the “activity in most assays” value [5] of the same compound?
Answer: little or no activity in most assays

Question: Which “effect on seedling growth” value ([6]; moderate and severe drought conditions) does the source give for Methyl 8'-methylene ABA [PBI-365] here?
Answer: no definitive effect on seedling growth

Question: What about the “effect on seedling growth” value ([6]; near lethal drought conditions) of the same compound?
Answer: positive influence on growth

Question: And the “long term effects on growth” value ([6]; optimum soil moisture conditions (FIG. 18))?
Answer: no long term negative effects on growth

Question: What about the “duration of reduction in gas exchange capability” value [7] of the same compound?
Answer: one to three

Question: And the “drought avoidance capability, dependence on treatment concentration” value ([8]; FIG. 17)?
Answer: improved with higher treatment concentrations

Question: What about the needle conductance ([8]; drought conditions) of the same compound?
Answer: reduction in needle conductance

Question: What about the seedling water balance ([8]; drought conditions) of the same compound?
Answer: improved seedling water balance under drought conditions

Question: And the drought avoidance capability ([8]; range of drought conditions)?
Answer: excellent drought avoidance capability
